Data as given in patent publication US20240067662A1, “KRAS INHIBITORS” (Bristol-Myers Squibb Company, priority 2022, published 2024).

Molecular target: GMPPNP-loaded KRAS G12C (Homo sapiens, UniProt P01116, G12C)
Experiment: KRAS G12C RAF Disruption Assay (HTRF)
Type: biochemical
Conditions: recombinant GMPPNP-loaded KRAS G12C (5 nM), 20 min with compound; GST-RAF1 RBD (9 nM); HTRF signal; read-out: KRASG12C RAF Disruption Assay (IC50)
Method in brief: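 GMPPNP-loaded KRAS G12C (5 nM) was preincubated with compound for 20 min at room temperature in Tris pH 7.5 buffer with NaCl, MgCl2, DTT and BSA. GST-RAF1 RBD (9 nM) was added for 20 min, then SA-Tb (0.25 nM) for 3 h. IC50 was fitted from the HTRF 520/495 ratio.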

GMPPNP-loaded KRAS G12C, sequence (P01116 1-188 isoform P01116-2 G12C): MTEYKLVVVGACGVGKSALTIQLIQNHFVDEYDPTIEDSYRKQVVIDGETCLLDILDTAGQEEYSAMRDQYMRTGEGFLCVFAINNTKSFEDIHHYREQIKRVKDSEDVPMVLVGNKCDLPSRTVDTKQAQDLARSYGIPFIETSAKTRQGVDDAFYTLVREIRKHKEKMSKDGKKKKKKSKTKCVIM

IC50 [nM] | SMILES
60 | C#Cc1c(F)ccc2cc(O)cc(-c3ncc4c(N5C[C@H]6CC[C@@H](C5)N6C(=O)/C(F)=C/c5cccc(COC)n5)nc(OC[C@@]56CCCN5C[C@H](F)C6)nc4c3F)c12 [Compound 15, (Z)-1-((1R, 5S)-3-(7-(8-ethynyl-7-fluoro-3-hydroxynaphthalen-1-yl)-8-fluoro-2-(((2R, 7aS)-2-fluorotetrahydro-1H-pyrrolizin-7a(5H)-yl)methoxy)pyrido[4,3-d]pyrimidin-4-yl)-3,8-diazabicyclo[3.2.1]octan-8-yl)-2-fluoro-3-(6-(methoxymethyl)pyridin-2-yl)prop-2-en-1-one]
390 | N#CC[C@H]1CN(c2nc(OC[C@@]34CCCN3C[C@H](F)C4)nc3c(F)c(-c4cc(Cl)ccc4C(F)(F)F)ncc23)CCN1C(=O)/C(F)=C/c1nccs1 [Example 46, 2-((S)-1-((Z)-2-fluoro-3-(thiazol-2-yl)acryloyl)-4-(8-fluoro-7-(5-chloro-2-(trifluoromethyl)phenyl)-2-(((2R, 7aS)-2-fluorotetrahydro-1H-pyrrolizin-7a(5H)-yl)methoxy)pyrido[4,3-d]pyrimidin-4-yl)piperazin-2-yl)acetonitrile]
2 | C#Cc1c(F)ccc2cc(O)cc(-c3ncc4c(N5CCN(C(=O)/C(F)=C/c6cccnn6)CC5)nc(OC[C@@]56CCCN5C[C@H](F)C6)nc4c3F)c12 [Example 55, (Z)-1-(4-(7-(8-ethynyl-7-fluoro-3-hydroxynaphthalen-1-yl)-8-fluoro-2-(((2R, 7aS)-2-fluorotetrahydro-1H-pyrrolizin-7a(5H)-yl)methoxy)pyrido[4,3-d]pyrimidin-4-yl)piperazin-1-yl)-2-fluoro-3-(pyridazin-3-yl)prop-2-en-1-one]
57 | C#Cc1cccc2cccc(-c3ncc4c(N5CCN(C(=O)/C(F)=C/c6ccccn6)C[C@H]5C)nc(OC[C@@]56CCCN5C[C@H](F)C6)nc4c3F)c12 [Example 75, (Z)-1-((3R)-4-(7-(8-ethynylnaphthalen-1-yl)-8-fluoro-2-(((2R, 7aS)-2-fluorotetrahydro-1H-pyrrolizin-7a(5H)-yl)methoxy)pyrido[4,3-d]pyrimidin-4-yl)-3-methylpiperazin-1-yl)-2-fluoro-3-(pyridin-2-yl)prop-2-en-1-one]
110 | C#Cc1c(F)ccc2cccc(-c3ncc4c(N5CCN(C(=O)/C(F)=C/c6ncccn6)C[C@@H]5C)nc(OC[C@@]56CCCN5C[C@H](F)C6)nc4c3F)c12 [Compound 90, (Z)-1-((S)-4-(7-(8-ethynyl-7-fluoronaphthalen-1-yl)-8-fluoro-2-(((2R, 7aS)-2-fluorotetrahydro-1H-pyrrolizin-7a(5H)-yl)methoxy)pyrido[4,3-d]pyrimidin-4-yl)-3-methylpiperazin-1-yl)-2-fluoro-3-(pyrimidin-2-yl)prop-2-en-1-one]
22 | C#Cc1c(F)ccc2cc(O)cc(-c3ncc4c(N5C[C@H]6CC[C@@H](C5)N6C(=O)/C(F)=C/c5nnc(C)s5)nc(OC[C@@]56CCCN5C[C@H](F)C6)nc4c3F)c12 [Compound 14, (Z)-1-((1R, 5S)-3-(7-(8-ethynyl-7-fluoro-3-hydroxynaphthalen-1-yl)-8-fluoro-2-(((2R, 7aS)-2-fluorotetrahydro-1H-pyrrolizin-7a(5H)-yl)methoxy)pyrido[4,3-d]pyrimidin-4-yl)-3,8-diazabicyclo[3.2.1]octan-8-yl)-2-fluoro-3-(5-methyl-1,3,4-thiadiazol-2-yl)prop-2-en-1-one]
24000 | C#Cc1cccc2cccc(-c3ncc4c(N5CC6(CCN(C(=O)/C(F)=C/c7ncccn7)CC6)C5)nc(OC[C@@]56CCCN5C[C@H](F)C6)nc4c3F)c12 [Compound 92, (Z)-1-(2-(7-(8-ethynylnaphthalen-1-yl)-8-fluoro-2-(((2R, 7aS)-2-fluorotetrahydro-1H-pyrrolizin-7a(5H)-yl)methoxy)pyrido[4,3-d]pyrimidin-4-yl)-2,7-diazaspiro[3.5]nonan-7-yl)-2-fluoro-3-(pyrimidin-2-yl)prop-2-en-1-one]
76 | N#CC[C@H]1CN(c2nc(OC[C@@]34CCCN3C[C@H](F)C4)nc3c(F)c(-c4ccccc4C(F)(F)F)ncc23)CCN1C(=O)/C(F)=C/c1nccs1 [Example 32, 2-((S)-4-(8-fluoro-2-(((2R, 7aS)-2-fluorotetrahydro-1H-pyrrolizin-7a(5H)-yl)methoxy)-7-(2-(trifluoromethyl)phenyl)pyrido[4,3-d]pyrimidin-4-yl)-1-((Z)-2-fluoro-3-(thiazol-2-yl)acryloyl)piperazin-2-yl)acetonitrile]
120 | C#Cc1cccc2cccc(-c3ncc4c(N5CCCN(C(=O)/C(F)=C/c6ccccn6)CC5)nc(OC[C@@]56CCCN5C[C@H](F)C6)nc4c3F)c12 [Example 77, (Z)-1-(4-(7-(8-ethynylnaphthalen-1-yl)-8-fluoro-2-(((2R, 7aS)-2-fluorotetrahydro-1H-pyrrolizin-7a(5H)-yl)methoxy)pyrido[4,3-d]pyrimidin-4-yl)-1,4-diazepan-1-yl)-2-fluoro-3-(pyridin-2-yl)prop-2-en-1-one]
590 | C#Cc1cccc2cccc(-c3ncc4c(N5CCN(C(=O)/C(F)=C/c6nccs6)C[C@H]5C)nc(OC[C@@]56CCCN5C[C@H](F)C6)nc4c3F)c12 [Example 76, (Z)-1-((3R)-4-(7-(8-ethynylnaphthalen-1-yl)-8-fluoro-2-(((2R, 7aS)-2-fluorotetrahydro-1H-pyrrolizin-7a(5H)-yl)methoxy)pyrido[4,3-d]pyrimidin-4-yl)-3-methylpiperazin-1-yl)-2-fluoro-3-(thiazol-2-yl)prop-2-en-1-one]
65 | N#CC[C@H]1CN(c2nc(OC[C@@]34CCCN3C[C@H](F)C4)nc3c(F)c(-c4ccccc4C4CC4)ncc23)CCN1C(=O)/C(F)=C/c1ccccn1 [Compound 79, 2-((2S)-4-(7-(2-cyclopropylphenyl)-8-fluoro-2-(((2R, 7aS)-2-fluorotetrahydro-1H-pyrrolizin-7a(5H)-yl)methoxy)pyrido[4,3-d]pyrimidin-4-yl)-1-((Z)-2-fluoro-3-(pyridin-2-yl)acryloyl)piperazin-2-yl)acetonitrile]
880 | N#CC[C@H]1CN(c2nc(OC[C@@]34CCCN3C[C@H](F)C4)nc3c(F)c(-c4cc(F)ccc4F)ncc23)CCN1C(=O)/C(F)=C/c1ccccn1 [Example 40, 2-((S)-4-(7-(2,5-difluorophenyl)-8-fluoro-2-(((2R, 7aS)-2-fluorotetrahydro-1H-pyrrolizin-7a(5H)-yl)methoxy)pyrido[4,3-d]pyrimidin-4-yl)-1-((Z)-2-fluoro-3-(pyridin-2-yl)acryloyl)piperazin-2-yl)acetonitrile]
